The values that follow come from article PMC8820820, “Feasibility and safety of targeting mitochondria for cancer therapy – preclinical characterization of gamitrinib, a first-in-class, mitochondriaL-targeted small molecule Hsp90 inhibitor” (Cancer Biology & Therapy, 2022).

Structures are written as SMILES.

Data set [1] in a line: Gamitrinib pharmacokinetics in rat plasma, single IV dose. The conditions noted are these: after IV Gamitrinib 5 mg/kg. It counts as in vivo, Sprague-Dawley rats. How it is done:
Sprague-Dawley rats (n = 3) were administered with a single intravenous (IV) dose of 1 mL Gamitrinib (5 mg/kg) formulated as described above without added microfluidization. Blood samples were collected via lateral tail vein using K2EDTA as an anticoagulant at 0.083, 0.25, 0.5, 1, 2, 4, and 24 h post-dose, chilled on ice, and centrifuged at 5000 rpm for 10 min. Aliquots (0.2 mL) of each plasma sample were stored frozen at −20°C. For analysis, 50 µL aliquots of the study samples were mixed with 50 µL of ACN/H2O (50:50), extracted by protein precipitation using ACN containing the internal standard Gamitrinib-d15 (100 ng/mL), and the aliquots of the supernatant were mixed with deionized water for Gamitrinib determination. Batch samples under analysis included a calibration curve, a matrix blank (blank rat plasma), a reagent blank, a control zero (blank rat plasma spiked with internal standard), and duplicate QC samples at three concentration levels (low, medium, and high) in addition to the study samples. Within each batch, the study samples were bracketed by calibration standards or QC samples. The lowest calibration standard served to evaluate system suitability at the beginning of each batch. […] Overall, the concentration of Gamitrinib was measured in 21 rat plasma samples in 1 analytical batch using LC-MS/MS data acquisition on a Shimadzu Nexera LC system coupled with an AB Sciex Triple Quad 5500 mass spectrometer. Chromatograms were integrated using Analyst 1.6.2 software. A weighted (1/x^2, x = concentration) linear regression was used to generate the calibration curve for Gamitrinib. […] The mean, standard deviation, precision, accuracy, and assay variability were calculated using Microsoft Excel.

Data set [2] can be described thus: Bidirectional Caco2 cell monolayer permeability. To be noted: human. The protocol: Caco-2 and HEK293 cells were obtained from the American Type Culture Collection (ATCC, Manassas, VA) and grown in culture according to the supplier’s specifications. In some experiments, HEK293 cells were stably transfected with hERG cDNA, and polyclonal cultures were maintained in the presence of 250 µg/ml geneticin (G418).
Bidirectional Caco2 cell monolayer permeability. Caco2 cells (2x10^4/well) were seeded onto apical chambers of a 24-multiwell insert plate and incubated at 37°C in 5% CO2. After 21 d, the transepithelial electrical resistance (TEER) in ohms was read for each insert well as a quality control for monolayer integrity (>900 ohms or 300 ohms cm^2). The cell monolayers were incubated with 400 µL transport buffer on the apical (A) and 1.2 mL on the basolateral (B) sides for 30 min. After preincubation, dosing solution was added to the apical (400 µL, A-to-B, donor) or basolateral sides (1.2 mL, B-to-A, donor) or receiving buffer to the apical (400 µL, B-to-A, receiver) or basolateral sides (1.2 mL, A-to-B, receiver) for 90 min at 37°C in 5% CO2. […] Papp’A>B (nm/s) was calculated with Equation 1.
Papp Efflux Ratio (ER) was calculated with Equation 2.
ER=Papp,B>APapp,A>BEquation 2: […]
Propranolol (high permeability marker, non-P-gp substate) and digoxin (P-gp substrate) were used as controls.
Background: Passage across Caco-2 layers is used to estimate intestinal permeability.

A short description of data set [3]: Phase I, cytochrome P450-mediated human liver microsome metabolism.
Another data set in a line: in vitro. The conditions noted are these: human.
Where [4] appears, read: Caco-2, Papp Efflux Ratio (ER), Papp,B>A / Papp,A>B.
The mark [5] stands for this setting: Caco-2, Papp, A>B, Caco2 monolayer, apical to basolateral.
Where [6] appears, read: Caco-2, Papp, B>A, Caco2 monolayer, basolateral to apical.
[7] abbreviates: Caco-2, Pexact Efflux Ratio, Caco2 monolayer.
Setting [8] is: Caco-2, Pexact,A>B, Caco2 monolayer.
Setting [9] is: Caco-2, Pexact,B>A, Caco2 monolayer.

Turning to `CO[C@H]1/C=C\C=C(/C)C(=O)NC2=CC(=O)C(N)=C(C[C@@H](C)C[C@H](OC)[C@H](O)[C@@H](C)/C=C(\C)[C@@H]1OC(N)=O)C2=O` [17-AG, 17-(amino)-17-demethoxygeldanamycin], the 17-AG plasma concentration entry is recorded as “BLOQ” in data set [1] (animal 1, 5 min); 0.561 ng/mL in data set [1] (animal 1, 15 min); “BLOQ” in data set [1] (animal 1, 30 min); “BLOQ” in data set [1] (animal 1, 60 min); “BLOQ” in data set [1] (animal 1, 120 min); “BLOQ” in data set [1] (animal 1, 240 min). Further, the 17-AG plasma concentration result is “BLOQ” in data set [1] (animal 1, 1440 min); 1.519 ng/mL in data set [1] (animal 2, 5 min); “BLOQ” in data set [1] (animal 2, 15 min); “BLOQ” in data set [1] (animal 2, 30 min); “BLOQ” in data set [1] (animal 2, 60 min); “BLOQ” in data set [1] (animal 2, 120 min). Also, the 17-AG plasma concentration entry in data set [1] (animal 2, 240 min) is “BLOQ”; in data set [1] (animal 2, 1440 min), “BLOQ”; in data set [1] (animal 3, 5 min), 1.113 ng/mL; in data set [1] (animal 3, 15 min) it was “BLOQ”; in data set [1] (animal 3, 30 min), “BLOQ”; in data set [1] (animal 3, 60 min), “BLOQ”. The 17-AG plasma concentration entry in data set [1] (animal 3, 120 min) is on record as “BLOQ”; in data set [1] (animal 3, 240 min), “BLOQ”; in data set [1] (animal 3, 1440 min), “BLOQ”.
Turning to `C[C@H]1O[C@@H](O[C@H]2[C@@H](O)C[C@H](O[C@H]3[C@@H](O)C[C@H](O[C@H]4CC[C@@]5(C)[C@H](CC[C@@H]6[C@@H]5C[C@@H](O)[C@]5(C)[C@@H](C7=CC(=O)OC7)CC[C@]65O)C4)O[C@@H]3C)O[C@@H]2C)C[C@H](O)[C@@H]1O` [Digoxin], the figures for the efflux ratio at 90 min in data set [2] (setting [4]) and in data set [2] (setting [7]) were 21 and 21.2, respectively. Also, the Papp A→B (commonly how fast a substance crosses the layer from the apical side) at 90 min is 0.547 ×10⁻⁶ cm/s in data set [2] (setting [5]) and 0.413 ×10⁻⁶ cm/s in data set [2] (setting [8]). For the same molecule, the Papp B→A (usually the apparent permeability from the basolateral to the apical side of a cell layer) at 90 min in data set [2] (setting [6]) came out at 11.5 ×10⁻⁶ cm/s; in data set [2] (setting [9]), 8.76 ×10⁻⁶ cm/s.
As to `Cc1ncc2n1-c1ccc(Cl)cc1C(c1ccccc1F)=NC2` [Midazolam, reference compound], in data set [3] (0.5 µM, human liver microsomes), the “elimination rate constant (k)” value worked out at 0.04 and the “intrinsic clearance (CLint)” value worked out at 3.23 mL/min/g. For the same molecule, the half-life (usually the time needed for the level to fall by half in the phase considered) at 0.5 µM in data set [3] (human, liver microsomes) is 17 min.
Regarding `CC(C)NCC(O)COc1cccc2ccccc12` (stereo not shown) [Propranolol], the efflux ratio (in general, a quotient of directional permeabilities that is used to spot active efflux) at 90 min in data set [2] (setting [4]) turned out to be 0.87; in data set [2] (setting [7]) it was 0.81. Further, the Papp A→B at 90 min turned out to be 18.6 ×10⁻⁶ cm/s in data set [2] (setting [5]) and 20.9 ×10⁻⁶ cm/s in data set [2] (setting [8]). Besides, the Papp B→A at 90 min in data set [2] (setting [6]) is 16.2 ×10⁻⁶ cm/s; in data set [2] (setting [9]) it was 17 ×10⁻⁶ cm/s.
As to `CC(=O)CC(c1ccccc1)c1c(O)c2ccccc2oc1=O` (stereo not shown) [warfarin], the recovery at 4 h, 2 µg/mL in “in vitro” worked out at 88.3 ± 2.9%.
